Experimental data: article PMC10784468 (Nature Communications, 2024)
Where two headings read alike, the source gives them in different places.

Experiments:
[1] = Particle size by DLS; type: physicochemical; details: 40 μM, PBS 0.01 M, pH 6.5, with GPX4; Supplementary Fig. 18
Protocol: Nano-ZS 3600 (Malvern Instruments, UK) was used to measure the size distribution of the peptide-porphyrin conjugate solutions. The conjugate solutions (40 μM) were incubated at pH 7.4 or pH 6.5 before measurements. An average value was determined by three repeated measurements at 25 °C for each sample. Besides, transmission electron microscopy (TEM, Tecnai G2 20 S-TWIN) was conducted to observe the morphology and diameters of conjugates in aqueous solution, The conjugates (50 μL, 40 μM) were kept in PB solution at pH 7.4 or pH 6.5, which were dropped on copper meshes. After 5 min, unnecessary liquid was removed and the uranyl acetate solution (10 μL) was dropped on this copper mesh to stain the samples for 10 min. Finally, the copper meshes were washed with deionized water, and dried at room temperature for observation.

[2] = system: GPX4 protein; experiment: Microscale Thermophoresis (MST) ligand binding; details: for Fnorm (‰), MST original data: labelled GPX4
Protocol: Initially, GPX4 was labeled using Protein Labeling Kit RED-NHS according to the manufacturer’s instructions to investigate the binding affinity of Gi-F-CAA, Gi-F and NGi-F-CAA with GPX4 protein. Afterward, the labelled GPX4 protein was incubated with series of Gi-F-CAA, Gi-F and NGi-F-CAA concentration gradients. Finally, the prepared samples were loaded into silica capillaries and measured with Monolish NT.115. Apparent Kd represented the affinity of assemblies rather than a single molecule. Bovine serum albumin (BSA) was used as control for calculating the apparent binding affinity between Gi-F (nanoparticle) to GPX4 protein. Briefly, as the diameter of nanoparticle is proportional to the molecular weight, according to the reported bovine serum albumin (BSA) protein size and molecular weight (7.2 nm, 66.43 KDa), the molecular weight of Gi-F nanoparticle with an average 78 nm size can be calculated to be […]. The monomer amount Gi-F nanoparticle was calculated as […].

[3] = system: HUVEC cells; type: cell-based; details: for Cell viability of HUVEC: HUVEC cells, pH=7.4
Protocol: Supplementary Fig. 27. Viability of HUVEC cells after treated with Gi -F (pH=7.4) and Gi-F-CAA (pH=7.4) at different
concentrations for 48 h (n=3 experimental repeats). Experiment was independently repeated three times with
(1 picture or pasted object on this page, not shown here)

[4] = system: EJ cells; experiment: Intracellular Fe2+ ions detection; type: cell-based
Protocol: Initially, EJ cells (5 × 10^5) were cultured in confocal dish with a CO2 incubator overnight at 37 °C. […] Afterwards, EJ cells were washed with PBS for 3 times and replaced with culture mediums.

[5] = biological target: T1, GPX4 (Homo sapiens, UniProt P36969); experiment: Intracellular GPX4 activity detection; type: cell-based; parameters: endogenous in cells; host or cells: EJ bladder cancer cells
T1 sequence (P36969 1-197): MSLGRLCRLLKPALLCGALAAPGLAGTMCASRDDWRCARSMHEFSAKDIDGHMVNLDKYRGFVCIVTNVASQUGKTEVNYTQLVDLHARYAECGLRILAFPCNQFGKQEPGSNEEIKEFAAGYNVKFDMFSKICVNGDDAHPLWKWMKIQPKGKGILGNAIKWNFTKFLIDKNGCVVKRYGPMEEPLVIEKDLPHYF
Protocol: Initially, EJ cells (5 × 10^5) were cultured in 6-well plate with a CO2 incubator overnight at 37 °C. […] Next, EJ cells were collected and washed with PBS for 3 times. Afterwards, the cell lysates were collected by centrifugation at 5000 rpm for 10 min at 4 °C after ultrasonic lysis in an ice bath. Finally, the GPX4 activity were measured with a GPX Assay Kit based on the manufacturer’s instructions.

FeTCPP-LKLKLKGACNWLPLYPCPV (disulfide) [Gi-F]
particle size (DLS) after incubation with GPX4 [1]: ~ 90 ± 9 nm | Fnorm (‰), MST original data ([2]; nanoparticle ligand concentration 3.07265e-11 (μM)): 857.598 ‰ | Fnorm (‰), MST original data ([2]; nanoparticle ligand concentration 6.14531e-11 (μM)): 848.131 ‰ | Fnorm (‰), MST original data ([2]; nanoparticle ligand concentration 1.22906e-10 (μM)): 859.494 ‰ | Fnorm (‰), MST original data ([2]; nanoparticle ligand concentration 2.45812e-10 (μM)): 850.692 ‰ | Fnorm (‰), MST original data ([2]; nanoparticle ligand concentration 4.91623e-10 (μM)): 861.283 ‰ | Fnorm (‰), MST original data ([2]; nanoparticle ligand concentration 9.8325e-10 (μM)): 853.275 ‰ | Fnorm (‰), MST original data ([2]; nanoparticle ligand concentration 1.9665e-9 (μM)): 865.165 ‰ | Fnorm (‰), MST original data ([2]; nanoparticle ligand concentration 3.933e-9 (μM)): 860.627 ‰ | Fnorm (‰), MST original data ([2]; nanoparticle ligand concentration 7.86601e-9 (μM)): 880.817 ‰ | Fnorm (‰), MST original data ([2]; nanoparticle ligand concentration 1.5732e-8 (μM)): 885.875 ‰ | Fnorm (‰), MST original data ([2]; nanoparticle ligand concentration 3.1464e-8 (μM)): 915.502 ‰ | Fnorm (‰), MST original data ([2]; nanoparticle ligand concentration 6.29279e-8 (μM)): 920.264 ‰ | Fnorm (‰), MST original data ([2]; nanoparticle ligand concentration 1.25856e-7 (μM)): 943.293 ‰ | Fnorm (‰), MST original data ([2]; nanoparticle ligand concentration 2.51712e-7 (μM)): 935.723 ‰ | Fnorm (‰), MST original data ([2]; nanoparticle ligand concentration 5.03423e-7 (μM)): 956.979 ‰ | Fnorm (‰), MST original data ([2]; nanoparticle ligand concentration 1.00685e-6 (μM)): 946.244 ‰ | increase of binding affinity to GPX4 versus Gi-F-CAA ([2]; ratio of MST Kd values): ~ 55 times | Cell viability of HUVEC ([3]; log concentration (μM) 0, replicate 1): 101.3% | Cell viability of HUVEC ([3]; log concentration (μM) 0, replicate 2): 99.35% | Cell viability of HUVEC ([3]; log concentration (μM) 0, replicate 3): 85.17% | Cell viability of HUVEC ([3]; log concentration (μM) 0.30103, replicate 1): 83.14% | Cell viability of HUVEC ([3]; log concentration (μM) 0.30103, replicate 2): 92.08% | Cell viability of HUVEC ([3]; log concentration (μM) 0.30103, replicate 3): 87.75% | Cell viability of HUVEC ([3]; log concentration (μM) 0.60206, replicate 1): 84.4% | Cell viability of HUVEC ([3]; log concentration (μM) 0.60206, replicate 2): 84.96% | Cell viability of HUVEC ([3]; log concentration (μM) 0.60206, replicate 3): 81.47% | Cell viability of HUVEC ([3]; log concentration (μM) 0.90309, replicate 1): 84.05% | Cell viability of HUVEC ([3]; log concentration (μM) 0.90309, replicate 2): 81.61% | Cell viability of HUVEC ([3]; log concentration (μM) 0.90309, replicate 3): 70.99% | Cell viability of HUVEC ([3]; log concentration (μM) 1.20412, replicate 1): 70.71% | Cell viability of HUVEC ([3]; log concentration (μM) 1.20412, replicate 2): 64.63% | Cell viability of HUVEC ([3]; log concentration (μM) 1.20412, replicate 3): 61.91% | Cell viability of HUVEC ([3]; log concentration (μM) 1.50515, replicate 1): 57.51% | Cell viability of HUVEC ([3]; log concentration (μM) 1.50515, replicate 2): 49.41% | Cell viability of HUVEC ([3]; log concentration (μM) 1.50515, replicate 3): 55.06% | Cell viability of HUVEC ([3]; log concentration (μM) 1.80618, replicate 1): 45.98% | Cell viability of HUVEC ([3]; log concentration (μM) 1.80618, replicate 2): 47.94% | Cell viability of HUVEC ([3]; log concentration (μM) 1.80618, replicate 3): 46.54% | Cell viability of HUVEC ([3]; log concentration (μM) 2.10721, replicate 1): 37.74% | Cell viability of HUVEC ([3]; log concentration (μM) 2.10721, replicate 2): 31.25% | Cell viability of HUVEC ([3]; log concentration (μM) 2.10721, replicate 3): 33.97% | Cell viability of HUVEC ([3]; log concentration (μM) 2.40824, replicate 1): 21.61% | Cell viability of HUVEC ([3]; log concentration (μM) 2.40824, replicate 2): 25.66% | Cell viability of HUVEC ([3]; log concentration (μM) 2.40824, replicate 3): 20.7% | cytotoxicity toward normal cells compared with Gi-F-CAA ([3]; pH 7.4): obvious increased cytotoxicity

FeTCPP-LKLKLK(SA)GACNWLPLYPCPV (disulfide) [Gi-F-SA, control conjugate decorated with non-sensitive succinic anhydride (SA) moieties]
intracellular Fe^2+ (FerroOrange fluorescence), pH 7.4 ([4]; EJ cells, pH 7.4, 8 h): no remarkable fluorescence | Concentrations of Fe2+ ions ([4]; pH=7.4, replicate #1): 13.222 ng/104cells | Concentrations of Fe2+ ions ([4]; pH=7.4, replicate #2): 11.221 ng/104cells | Concentrations of Fe2+ ions ([4]; pH=7.4, replicate #3): 12.7 ng/104cells | Relative activity of GPX4 ([5]; EJ cells, 8 h, pH 7.4, PBS group normalized as 1, #1): 0.62 | Relative activity of GPX4 ([5]; EJ cells, 8 h, pH 7.4, PBS group normalized as 1, #2): 0.59 | Relative activity of GPX4 ([5]; EJ cells, 8 h, pH 7.4, PBS group normalized as 1, #3): 0.73 | Relative activity of GPX4 ([5]; pH=7.4, replicate #1): 0.61 | Relative activity of GPX4 ([5]; pH=7.4, replicate #2): 0.62 | Relative activity of GPX4 ([5]; pH=7.4, replicate #3): 0.66
